The assay concerns BDF1 mice, P388 leukemia ip, median survival T/C. Put plainly: NCI In Vivo Anticancer Drug Screen. Data for tumor model P388 Leukemia (intraperitoneal) in B6D2F1 (BDF1) mice. The note with it: endpoint: median survival time, higher = longer survival. The procedure, abridged: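 Antitumour effect was judged in vivo: survival in drug-treated mice, normalised to that of vehicle-dosed controls, gives the reported T/C.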

[1] abbreviates: dose: 50.0 mg/kg/injection, schedule: Q01DX009 (ip), vehicle: saline.
Where [2] appears, read: dose: 100.0 mg/kg/injection, schedule: Q01DX009 (ip), vehicle: saline.
The mark [3] stands for this setting: dose: 200.0 mg/kg/injection, schedule: Q01DX009 (ip), vehicle: saline.
Setting [4] is: dose: 100.0 mg/kg/injection, schedule: Q04DX003 (ip), vehicle: saline with Tween-80.
Where [5] appears, read: dose: 200.0 mg/kg/injection, schedule: Q04DX003 (ip), vehicle: saline with Tween-80.
[6] abbreviates: dose: 50.0 mg/kg/injection, schedule: Q01DX009 (ip), vehicle: saline with Tween-80.
[7] abbreviates: dose: 100.0 mg/kg/injection, schedule: Q01DX009 (ip), vehicle: saline with Tween-80.
[8] abbreviates: dose: 200.0 mg/kg/injection, schedule: Q01DX009 (ip), vehicle: saline with Tween-80.
[9] abbreviates: dose: 100.0 mg/kg/injection, schedule: Q04DX003 (ip), vehicle: saline sonified.
Setting [10] is: dose: 20.0 mg/kg/injection, schedule: Q01DX010 (ip), vehicle: carboxymethylcellulose (CMC).
Where [11] appears, read: dose: 100.0 mg/kg/injection, schedule: Q01DX001 (ip), vehicle: saline with Tween-80.
The mark [12] stands for this setting: dose: 200.0 mg/kg/injection, schedule: Q01DX001 (ip), vehicle: saline with Tween-80.
Setting [13] is: dose: 400.0 mg/kg/injection, schedule: Q01DX001 (ip), vehicle: saline with Tween-80.

Several values for one entry are separate records, joined by “and”; a condition that tells them apart may be missing. Identical values can stand only once. Inconclusive results and toxic doses are left out.

Consider `O=P1(NCCCl)OCCCN1CCCl` (centres undefined), for which the T/C (dose: 0.8 mg/kg/injection, schedule: Q01DX010 (ip), vehicle: saline) is 105 % of control; the T/C (dose: 1.5 mg/kg/injection, schedule: Q01DX010 (ip), vehicle: saline) is 100 % of control; the T/C (dose: 3.0 mg/kg/injection, schedule: Q01DX010 (ip), vehicle: saline) was 110 % of control; the T/C (dose: 3.12 mg/kg/injection, schedule: Q01DX009 (ip), vehicle: saline) is 99 % of control; the T/C (dose: 6.0 mg/kg/injection, schedule: Q01DX010 (ip), vehicle: saline) is 110 % of control; the T/C (dose: 6.25 mg/kg/injection, schedule: Q01DX009 (ip), vehicle: saline) was 107 % of control and 115 % of control. For the same compound, the T/C reads like this: (dose: 12.5 mg/kg/injection, schedule: Q01DX009 (ip), vehicle: saline) 173 % of control; (dose: 12.5 mg/kg/injection, schedule: Q01DX010 (ip), vehicle: saline) 177 % of control; (dose: 25.0 mg/kg/injection, schedule: Q01DX009 (ip), vehicle: saline) 166 % of control and 196 % of control; (dose: 25.0 mg/kg/injection, schedule: Q01DX009 (ip), vehicle: water) 156 % of control; (dose: 25.0 mg/kg/injection, schedule: Q01DX010 (ip), vehicle: saline) 216 % of control; under setting [1], 121 % of control. The T/C is 241 % of control (dose: 50.0 mg/kg/injection, schedule: Q01DX009 (ip), vehicle: water); 200 % of control (dose: 50.0 mg/kg/injection, schedule: Q01DX010 (ip), vehicle: saline); 105 % of control under setting [2]; 300 % of control (dose: 100.0 mg/kg/injection, schedule: Q01DX010 (ip), vehicle: saline); 87 % of control under setting [3]; 98 % of control (dose: 200.0 mg/kg/injection, schedule: Q01DX009 (ip), vehicle: water). Further, the T/C (dose: 200.0 mg/kg/injection, schedule: Q01DX010 (ip), vehicle: saline) was 105 % of control.
As for `CC(=O)N(C)Nc1ccccc1`, the T/C was 100 % of control (dose: 50.0 mg/kg/injection, schedule: Q04DX003 (ip), vehicle: saline with Tween-80); 90 % of control and 100 % of control under setting [4]; 105 % of control under setting [5].
Turning to `C=Cn1ccnc1C.C=Cn1ccnc1C.CC(=O)CC(C)=O.CC(=O)CC(C)=O.[Co]`, the T/C (dose: 12.5 mg/kg/injection, schedule: Q04DX003 (ip), vehicle: saline) was 106 % of control; the T/C (dose: 25.0 mg/kg/injection, schedule: Q04DX003 (ip), vehicle: saline) was 106 % of control; the T/C (dose: 50.0 mg/kg/injection, schedule: Q04DX003 (ip), vehicle: saline) was 117 % of control.
In the case of `Oc1ccc(Cl)cc1Br`, the T/C (dose: 25.0 mg/kg/injection, schedule: Q01DX009 (ip), vehicle: saline with Tween-80) was 110 % of control; the T/C under setting [6] is 115 % of control; the T/C under setting [7] is 110 % of control.
On to `ClCCN=Cc1ccc(Cl)cc1`, for which the T/C is 116 % of control under setting [7]; 111 % of control under setting [8]; 120 % of control (dose: 400.0 mg/kg/injection, schedule: Q01DX009 (ip), vehicle: saline with Tween-80).
In the case of `CC1(C)CC2(CC(C)(C)c3cc(O)c(O)cc32)c2cc(O)c(O)cc21`, the T/C is 109 % of control under setting [9]; 104 % of control (dose: 200.0 mg/kg/injection, schedule: Q04DX003 (ip), vehicle: saline sonified); 100 % of control (dose: 400.0 mg/kg/injection, schedule: Q04DX003 (ip), vehicle: saline sonified).
Take `CCC(CC)c1ccccn1`: the T/C runs as follows: under setting [1], 104 % of control; (dose: 100.0 mg/kg/injection, schedule: Q01DX009 (ip), vehicle: carboxymethylcellulose (CMC)) 99 % of control; under setting [2], 105 % of control; (dose: 200.0 mg/kg/injection, schedule: Q01DX009 (ip), vehicle: carboxymethylcellulose (CMC)) 108 % of control; under setting [3], 113 % of control.
As to `CC1=CC(=O)c2ccccc2C1=O`, the T/C was 110 % of control (dose: 8.8 mg/kg/injection, schedule: Q01DX010 (ip), vehicle: carboxymethylcellulose (CMC)); 110 % of control (dose: 13.3 mg/kg/injection, schedule: Q01DX010 (ip), vehicle: carboxymethylcellulose (CMC)); 90 % of control under setting [10]; 115 % of control (dose: 30.0 mg/kg/injection, schedule: Q01DX010 (ip), vehicle: carboxymethylcellulose (CMC)).
As for `Nc1ccc(NS(=O)(=O)c2ccccc2)nc1`, the T/C (dose: 100.0 mg/kg/injection, schedule: Q01DX009 (ip), vehicle: Klucel (hydroxypropylcellulose) (HPC)) was 100 % of control; the T/C (dose: 100.0 mg/kg/injection, schedule: Q04DX003 (ip), vehicle: Klucel (hydroxypropylcellulose) (HPC)) was 100 % of control; the T/C (dose: 200.0 mg/kg/injection, schedule: Q01DX009 (ip), vehicle: Klucel (hydroxypropylcellulose) (HPC)) was 100 % of control; the T/C (dose: 200.0 mg/kg/injection, schedule: Q04DX003 (ip), vehicle: Klucel (hydroxypropylcellulose) (HPC)) was 100 % of control; the T/C (dose: 400.0 mg/kg/injection, schedule: Q01DX009 (ip), vehicle: Klucel (hydroxypropylcellulose) (HPC)) is 95 % of control; the T/C (dose: 400.0 mg/kg/injection, schedule: Q04DX003 (ip), vehicle: Klucel (hydroxypropylcellulose) (HPC)) was 100 % of control.
Take `OC(COc1ccccc1)CC(O)(C(F)(F)F)C(F)(F)F` (centres undefined): the T/C was 95 % of control under setting [11], 104 % of control under setting [12] and 104 % of control under setting [13].
In the case of `CCCCc1ccc(C#N)nc1`, the T/C was 98 % of control under setting [6], 106 % of control under setting [7] and 108 % of control under setting [8].
Take `Nc1nc2c(c(=O)[nH]1)NC(CCNc1ccc(C(=O)O)cc1)CN2` (centres undefined): the T/C under setting [4] is 86 % of control.
As to `O=C1C2ON=C(c3ccccc3)C2C(=O)N1OS(=O)(=O)c1ccccc1` (centres undefined), the T/C runs as follows: under setting [7], 100 % of control; under setting [4], 100 % of control; under setting [8], 109 % of control; under setting [5], 100 % of control; (dose: 400.0 mg/kg/injection, schedule: Q04DX003 (ip), vehicle: saline with Tween-80) 100 % of control.
For the compound `NC1=C(N2CC2)C(=O)C(N)=C(N2CC2)C1=O`, the T/C (dose: 100.0 micrograms/kg/injection, schedule: Q01DX009 (ip), vehicle: saline) was 178 % of control.
`CN(C)c1ccc(/C=C2\NC(=O)NC2=O)cc1`: the T/C by setting is: under setting [11], 103 % of control; under setting [12], 97 % of control; under setting [13], 95 % of control.
On to `C=C1C(=O)O[C@H]2[C@H]1[C@H](OC(=O)/C(C)=C\C)CC(=C)[C@@H]1[C@H](O)[C@H]3O[C@@]3(C)[C@@]12O`, for which the T/C (dose: 5.0 mg/kg/injection, schedule: Q01DX010 (ip), vehicle: carboxymethylcellulose (CMC)) is 104 % of control; the T/C (dose: 10.0 mg/kg/injection, schedule: Q01DX010 (ip), vehicle: carboxymethylcellulose (CMC)) is 104 % of control; the T/C under setting [10] is 113 % of control.
Turning to `C=CCNC(=O)c1ccccc1OCC(=O)O`, the T/C by setting is: (dose: 100.0 mg/kg/injection, schedule: Q01DX009 (ip), vehicle: gum acacia) 100 % of control; (dose: 100.0 mg/kg/injection, schedule: Q04DX003 (ip), vehicle: gum acacia) 100 % of control; (dose: 200.0 mg/kg/injection, schedule: Q01DX009 (ip), vehicle: gum acacia) 95 % of control; (dose: 200.0 mg/kg/injection, schedule: Q04DX003 (ip), vehicle: gum acacia) 91 % of control; (dose: 400.0 mg/kg/injection, schedule: Q01DX009 (ip), vehicle: gum acacia) 91 % of control; (dose: 400.0 mg/kg/injection, schedule: Q04DX003 (ip), vehicle: gum acacia) 108 % of control.
Turning to `C=CCCC/C(C)=N/NS(=O)(=O)c1ccc(C)cc1`, the T/C under setting [6] is 109 % of control, the T/C under setting [7] was 109 % of control and the T/C under setting [8] was 95 % of control.
For `O=C(Nc1cccc(C(F)(F)F)c1)Nc1ccc(Oc2ccc(Cl)cc2)cc1S(=O)(=O)O`, the T/C is 104 % of control (dose: 50.0 mg/kg/injection, schedule: Q04DX003 (ip), vehicle: saline sonified) and 100 % of control under setting [9].

The values are drawn from PubChem BioAssay AID328 (DTP/NCI, 2004).
